Among the data in patent US9850283B2, “Macrocyclic inhibitors of the PD-1/PD-L1 and CD80(B7-1)/PD-L1 protein/protein interactions” (BRISTOL-MYERS SQUIBB COMPANY, priority 2013, dated 2017) are IC50 values, retold here.

pIC50: −log10 of the molar value. Read-outs that look alike come from different tables or passages of the source. Positions of bridges follow the written chain, without caps; N, C: chain ends. Non-standard residues stand in square brackets, D forms with d. Residues, ends and D or L forms follow the SMILES beside them. Ala(benzothiazol-2-yl) = N[C@@H](Cc1nc2ccccc2s1)C(=O)O; Phe(3-CF3) = N[C@@H](Cc1cccc(C(F)(F)F)c1)C(=O)O; Phe(2,4-Cl2) = N[C@@H](Cc1ccc(Cl)cc1Cl)C(=O)O; Bip = N[C@@H](Cc1ccc(-c2ccccc2)cc1)C(=O)O; Phe(3-OMe) = COc1cccc(C[C@H](N)C(=O)O)c1; Phe(4-Cl) = N[C@@H](Cc1ccc(Cl)cc1)C(=O)O; NMeF = CN[C@@H](Cc1ccccc1)C(=O)O; NMeNle = CCCC[C@H](NC)C(=O)O; dNMeA = CN[C@H](C)C(=O)O; Sar = CNCC(=O)O

For one test, the target named is T1, Human PD-L1/PD-1 (Homo sapiens, UniProt Q9NZQ7).
T1 construct: made in house; host or cells: HEK293T
T1 sequence (Q9NZQ7 with tags, fused parts or gaps): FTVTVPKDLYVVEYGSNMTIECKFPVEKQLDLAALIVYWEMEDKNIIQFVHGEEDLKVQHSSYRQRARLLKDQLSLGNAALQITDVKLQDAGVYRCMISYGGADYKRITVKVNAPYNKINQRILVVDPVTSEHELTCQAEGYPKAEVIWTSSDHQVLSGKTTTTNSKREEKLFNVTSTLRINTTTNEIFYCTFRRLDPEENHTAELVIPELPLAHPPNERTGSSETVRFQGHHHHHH
Put plainly: HTRF PD-1-Ig/PD-L1-His binding assay (human PD-L1). The essentials:
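Readout: time-resolved FRET between Eu cryptate-labeled anti-Ig (1 nM final) and APC-labeled anti-His (20 nM final) antibodies. These detect interaction of Fc-fused PD-1 with His-tagged human PD-L1 in dPBS containing 0.1% BSA and 0.05% Tween-20.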
(TR-FRET usually uses a lanthanide donor and a delayed reading to cut background.)

The target in test [1] is T2, LK35.2-hPD-L1 cells / PE-labeled PD-1-Ig (Homo sapiens, UniProt Q9NZQ7).
T2 construct: expressed in transfected cells; host or cells: LK35.2 mouse B cell line
T2 sequence (Q9NZQ7 19-290): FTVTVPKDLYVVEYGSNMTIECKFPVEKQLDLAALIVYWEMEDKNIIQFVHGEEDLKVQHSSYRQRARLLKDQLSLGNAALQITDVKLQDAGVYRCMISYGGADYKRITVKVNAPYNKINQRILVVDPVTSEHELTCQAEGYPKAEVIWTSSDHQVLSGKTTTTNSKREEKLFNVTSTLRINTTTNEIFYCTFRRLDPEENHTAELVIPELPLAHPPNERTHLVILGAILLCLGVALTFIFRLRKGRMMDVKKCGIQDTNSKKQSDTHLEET
Put plainly: LK35.2-hPD-L1 cell binding high-content screening assay. The note with it: cell binding assay, cell line not given. The format is cell-based. The essentials: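 Mouse LK35.2 B cells stably overexpressing human PD-L1 were cultured overnight in RPMI with 10% FCS, then given compound and PE-labeled human PD-1-Ig (1 nM final) for 1 h at 37 °C. After three dPBS washes, bound fluorescence was quantified by high-content imaging.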

The mark [2] stands for this setting: cluster symbol, read-out: HTRF IC50 cluster.
Where [3] appears, read: cluster symbol, read-out: CBA IC50 cluster.
Where [4] appears, read: value given instead of cluster, read-out: HTRF IC50 value.
[5] abbreviates: value given instead of cluster, read-out: CBA IC50 value.

For orientation: pIC50 means the negative decadic logarithm of the IC50, by convention in mol/L. `CCCC[C@H]1C(=O)N(C)CC(=O)N[C@@H](CC(=O)O)C(=O)N[C@@H](C(C)C)C(=O)N(C)[C@@H](Cc2ccccc2)C(=O)N[C@@H](Cc2ccc(O)cc2)C(=O)N(C)CC(=O)N[C@@H](Cc2ccc(Cl)cc2)C(=O)N[C@@H](Cc2ccc(O)cc2)C(=O)N[C@@H](CC(C)C)C(=O)N[C@H](C(=O)NCC(N)=O)CSCC(=O)N[C@@H](Cc2ccccc2)C(=O)N(C)[C@@H](Cc2ccccc2)C(=O)N1C` [Example 3546] ({CH2CO}-F[NMeF][NMeNle][Sar]DV[NMeF]Y[Sar][Phe(4-Cl)]YLCG-NH2; thioether N-13): the results for the pIC50 (on Human PD-L1/PD-1 (setting [2]); in test [1] (setting [3])) were less than 7.52 and less than 7.13, respectively.
Regarding `CCCC[C@H]1C(=O)N(C)CC(=O)N[C@@H](CC(=O)O)C(=O)N[C@@H](C(C)C)C(=O)N(C)[C@@H](Cc2ccccc2)C(=O)N[C@@H](Cc2ccc(O)cc2)C(=O)N(C)CC(=O)N[C@@H](Cc2c[nH]c3ccccc23)C(=O)N[C@@H](Cc2ccc(-c3ccccc3)cc2)C(=O)N[C@@H](CC(C)C)C(=O)N[C@H](C(=O)NCC(N)=O)CSCC(=O)N[C@@H](Cc2ccccc2)C(=O)N(C)[C@@H](Cc2ccccc2)C(=O)N1C` [Example 3547] ({CH2CO}-F[NMeF][NMeNle][Sar]DV[NMeF]Y[Sar]W[Bip]LCG-NH2; thioether N-13), the figures for the pIC50 (on Human PD-L1/PD-1 (setting [2]); in test [1] (setting [3])) were less than 7.52 and less than 7.13, respectively.
On to `CCCC[C@H]1C(=O)N(C)CC(=O)N[C@@H](CC(=O)O)C(=O)N[C@@H](C(C)C)C(=O)N(C)[C@@H](Cc2ccccc2)C(=O)N[C@@H](Cc2ccc(O)cc2)C(=O)N(C)CC(=O)N[C@@H](Cc2cccc(OC)c2)C(=O)N[C@@H](Cc2ccc(O)cc2)C(=O)N[C@@H](CC(C)C)C(=O)N[C@H](C(=O)NCC(N)=O)CSCC(=O)N[C@@H](Cc2ccccc2)C(=O)N(C)[C@@H](Cc2ccccc2)C(=O)N1C` [Example 3548] ({CH2CO}-F[NMeF][NMeNle][Sar]DV[NMeF]Y[Sar][Phe(3-OMe)]YLCG-NH2; thioether N-13), for which the pIC50 on Human PD-L1/PD-1 (setting [2]) is less than 7.52; in test [1] (setting [3]) it was less than 7.13.
For `CCCC[C@H]1C(=O)N(C)CC(=O)N[C@@H](CC(=O)O)C(=O)N[C@@H](C(C)C)C(=O)N(C)[C@@H](Cc2ccccc2)C(=O)N[C@@H](Cc2ccc(O)cc2)C(=O)N(C)CC(=O)N[C@@H](Cc2ccc(Cl)cc2Cl)C(=O)N[C@@H](Cc2ccc(O)cc2)C(=O)N[C@@H](CC(C)C)C(=O)N[C@H](C(=O)NCC(N)=O)CSCC(=O)N[C@@H](Cc2ccccc2)C(=O)N(C)[C@@H](Cc2ccccc2)C(=O)N1C` [Example 3549] ({CH2CO}-F[NMeF][NMeNle][Sar]DV[NMeF]Y[Sar][Phe(2,4-Cl2)]YLCG-NH2; thioether N-13), the pIC50 was 6.56 at Human PD-L1/PD-1 (setting [4]) and 6.14 in test [1] (setting [5]).
On the same counts, the results for `CCCC[C@H]1C(=O)N(C)CC(=O)N[C@@H](CC(=O)O)C(=O)N[C@@H](C(C)C)C(=O)N(C)[C@@H](Cc2ccccc2)C(=O)N[C@@H](Cc2ccc(O)cc2)C(=O)N(C)CC(=O)N[C@@H](Cc2cccc(C(F)(F)F)c2)C(=O)N[C@@H](Cc2ccc(O)cc2)C(=O)N[C@@H](CC(C)C)C(=O)N[C@H](C(=O)NCC(N)=O)CSCC(=O)N[C@@H](Cc2ccccc2)C(=O)N(C)[C@@H](Cc2ccccc2)C(=O)N1C` [Example 3550] ({CH2CO}-F[NMeF][NMeNle][Sar]DV[NMeF]Y[Sar][Phe(3-CF3)]YLCG-NH2; thioether N-13) are 7.39 and 6.83.
For `CCCC[C@H]1C(=O)N(C)CC(=O)N[C@@H](CC(=O)O)C(=O)N[C@@H](C(C)C)C(=O)N(C)[C@@H](Cc2ccccc2)C(=O)N[C@@H](Cc2ccc(O)cc2)C(=O)N(C)[C@H](C)C(=O)N[C@@H](Cc2c[nH]c3ccccc23)C(=O)N[C@@H](Cc2ccc(O)cc2)C(=O)N[C@@H](CC(C)C)C(=O)N[C@H](C(=O)NCC(N)=O)CSCC(=O)N[C@@H](Cc2ccccc2)C(=O)N(C)[C@@H](Cc2ccccc2)C(=O)N1C` [Example 3551] ({CH2CO}-F[NMeF][NMeNle][Sar]DV[NMeF]Y[dNMeA]WYLCG-NH2; thioether N-13), the pIC50 was 7.52 to 8.17 at Human PD-L1/PD-1 (setting [2]) and 7.14 to 8.32 in test [1] (setting [3]).
Regarding `CCCC[C@H]1C(=O)N[C@H](CC(=O)O)C(=O)N[C@@H](CC(=O)O)C(=O)N[C@@H](C(C)C)C(=O)N(C)[C@@H](Cc2ccccc2)C(=O)N[C@@H](Cc2ccc(O)cc2)C(=O)N(C)CC(=O)N[C@@H](Cc2c[nH]c3ccccc23)C(=O)N[C@@H](Cc2ccc(O)cc2)C(=O)N[C@@H](CC(C)C)C(=O)N[C@H](C(=O)NCC(N)=O)CSCC(=O)N[C@@H](Cc2ccccc2)C(=O)N(C)[C@@H](Cc2ccccc2)C(=O)N1C` [Example 3552] (HELM PEPTIDE1{[O=C(C[*:3])[*:2]].F.[meF].[CCCC[C@@H](C(=O)[*:2])N(C)[*:1]].[dD].D.V.[meF].Y.[Sar].W.Y.L.C.G.[am]}$PEPTIDE1,PEPTIDE1,1:R3-14:R3$$$V2.0), the pIC50 was 8.17 to 9.41 on Human PD-L1/PD-1 (setting [2]) and 7.14 to 8.32 in test [1] (setting [3]).
Turning to `CCCC[C@H]1C(=O)N(C)CC(=O)N[C@@H](CC(=O)O)C(=O)N[C@@H](C(C)C)C(=O)N(C)[C@@H](Cc2ccccc2)C(=O)N[C@@H](Cc2ccc(O)cc2)C(=O)N(C)CC(=O)N[C@@H](Cc2nc3ccccc3s2)C(=O)N[C@@H](Cc2ccc(O)cc2)C(=O)N[C@@H](CC(C)C)C(=O)N[C@H](C(=O)NCC(N)=O)CSCC(=O)N[C@@H](Cc2ccccc2)C(=O)N(C)[C@@H](Cc2ccccc2)C(=O)N1C` [Example 3557] ({CH2CO}-F[NMeF][NMeNle][Sar]DV[NMeF]Y[Sar][Ala(benzothiazol-2-yl)]YLCG-NH2; thioether N-13), the pIC50 at Human PD-L1/PD-1 (setting [2]) is less than 7.52; in test [1] (setting [3]), less than 7.13.
As to `CCCC[C@H]1C(=O)N(C)CC(=O)N[C@@H](CC(=O)O)C(=O)N[C@@H](C(C)C)C(=O)N(C)[C@@H](Cc2ccccc2)C(=O)N[C@@H](Cc2ccc(O)cc2)C(=O)N(C)CC(=O)N[C@@H](Cc2c[nH]c3ccccc23)C(=O)N[C@@H](Cc2nc3ccccc3s2)C(=O)N[C@@H](CC(C)C)C(=O)N[C@H](C(=O)NCC(N)=O)CSCC(=O)N[C@@H](Cc2ccccc2)C(=O)N(C)[C@@H](Cc2ccccc2)C(=O)N1C` [Example 3558] ({CH2CO}-F[NMeF][NMeNle][Sar]DV[NMeF]Y[Sar]W[Ala(benzothiazol-2-yl)]LCG-NH2; thioether N-13), the pIC50 on Human PD-L1/PD-1 (setting [2]) is less than 7.52; in test [1] (setting [3]), less than 7.13.
For the molecule `CCCC[C@H]1C(=O)N(C)CC(=O)N[C@@H](CC(=O)O)C(=O)N[C@@H](C(C)C)C(=O)N(C)[C@@H](Cc2ccccc2)C(=O)N[C@@H](CCC(=O)O)C(=O)N(C)CC(=O)N[C@@H](Cc2c[nH]c3ccccc23)C(=O)N[C@@H](Cc2ccc(O)cc2)C(=O)N[C@@H](CCCNC(=N)N)C(=O)N[C@H](C(=O)NCC(N)=O)CSCC(=O)N[C@@H](Cc2ccccc2)C(=O)N(C)[C@@H](Cc2ccccc2)C(=O)N1C` [Example 3559] (HELM PEPTIDE1{[O=C(C[*:3])[*:2]].F.[meF].[CCCC[C@@H](C(=O)[*:2])N(C)[*:1]].[Sar].D.V.[meF].E.[Sar].W.Y.R.C.G.[am]}$PEPTIDE1,PEPTIDE1,1:R3-14:R3$$$V2.0), the pIC50 on Human PD-L1/PD-1 (HTRF IC50 value, value given instead of cluster) is 7.92; in test [1] (CBA IC50 value, value given instead of cluster) it was 7.32.
Consider `CCCC[C@H]1C(=O)N2CCC[C@@H]2C(=O)N[C@@H](CC(=O)O)C(=O)N[C@@H](C(C)C)C(=O)N(C)[C@@H](Cc2ccccc2)C(=O)N[C@@H](Cc2ccc(O)cc2)C(=O)N(C)CC(=O)N[C@@H](Cc2c[nH]c3ccccc23)C(=O)N[C@@H](Cc2ccc(O)cc2)C(=O)N[C@@H](CC(C)C)C(=O)N[C@H](C(=O)NCC(N)=O)CSCC(=O)N[C@@H](Cc2ccccc2)C(=O)N(C)[C@@H](Cc2ccccc2)C(=O)N1C` [Example 3560] (HELM PEPTIDE1{[O=C(C[*:3])[*:2]].F.[meF].[CCCC[C@@H](C(=O)[*:2])N(C)[*:1]].[dP].D.V.[meF].Y.[Sar].W.Y.L.C.G.[am]}$PEPTIDE1,PEPTIDE1,1:R3-14:R3$$$V2.0), for which the results for the pIC50 (at Human PD-L1/PD-1 (setting [2]); in test [1] (setting [3])) were 7.52 to 8.17 and 8.33 to 9.80, respectively.
For the molecule `CCCC[C@H]1C(=O)N(C)CC(=O)N[C@@H](CC(=O)O)C(=O)N[C@@H](C(C)C)C(=O)N(C)[C@@H](Cc2ccccc2)C(=O)N[C@@H](Cc2ccc(O)cc2)C(=O)N(C)CC(=O)N[C@@H](Cc2c[nH]c3ccccc23)C(=O)N[C@@H](Cc2ccc(O)cc2)C(=O)N2CCC[C@H]2C(=O)N[C@H](C(=O)NCC(N)=O)CSCC(=O)N[C@@H](Cc2ccccc2)C(=O)N(C)[C@@H](Cc2ccccc2)C(=O)N1C` [Example 3561] (HELM PEPTIDE1{[O=C(C[*:3])[*:2]].F.[meF].[CCCC[C@@H](C(=O)[*:2])N(C)[*:1]].[Sar].D.V.[meF].Y.[Sar].W.Y.P.C.G.[am]}$PEPTIDE1,PEPTIDE1,1:R3-14:R3$$$V2.0), the pIC50 is less than 7.52 on Human PD-L1/PD-1 (setting [2]) and less than 7.13 in test [1] (setting [3]).
Regarding `CCCC[C@H]1C(=O)N(C)CC(=O)N[C@@H](CC(=O)O)C(=O)N[C@@H](C(C)C)C(=O)N(C)[C@@H](Cc2ccccc2)C(=O)N[C@@H](Cc2ccc(O)cc2)C(=O)N2CCC[C@@H]2C(=O)N[C@@H](Cc2c[nH]c3ccccc23)C(=O)N[C@@H](Cc2ccc(O)cc2)C(=O)N[C@@H](CC(C)C)C(=O)N[C@H](C(=O)NCC(N)=O)CSCC(=O)N[C@@H](Cc2ccccc2)C(=O)N(C)[C@@H](Cc2ccccc2)C(=O)N1C` [Example 3562] (HELM PEPTIDE1{[O=C(C[*:3])[*:2]].F.[meF].[CCCC[C@@H](C(=O)[*:2])N(C)[*:1]].[Sar].D.V.[meF].Y.[dP].W.Y.L.C.G.[am]}$PEPTIDE1,PEPTIDE1,1:R3-14:R3$$$V2.0), the results for the pIC50 (on Human PD-L1/PD-1 (setting [2]); in test [1] (setting [3])) were 7.52 to 8.17 and 8.33 to 9.80, respectively.
